Tests used:
[1] = biological target: T1, CCK-B receptors (CHO-CCK) (Homo sapiens, UniProt P32239); assay: Calcium flux (Fluo-8) agonist test on CHO-CCK model cells; type: cell-based; settings: CHO-CCK cells
T1 construct: expressed in transfected cells; host or cells: CHO (CHO-CCK model cells)
T1 sequence (P32239 1-447): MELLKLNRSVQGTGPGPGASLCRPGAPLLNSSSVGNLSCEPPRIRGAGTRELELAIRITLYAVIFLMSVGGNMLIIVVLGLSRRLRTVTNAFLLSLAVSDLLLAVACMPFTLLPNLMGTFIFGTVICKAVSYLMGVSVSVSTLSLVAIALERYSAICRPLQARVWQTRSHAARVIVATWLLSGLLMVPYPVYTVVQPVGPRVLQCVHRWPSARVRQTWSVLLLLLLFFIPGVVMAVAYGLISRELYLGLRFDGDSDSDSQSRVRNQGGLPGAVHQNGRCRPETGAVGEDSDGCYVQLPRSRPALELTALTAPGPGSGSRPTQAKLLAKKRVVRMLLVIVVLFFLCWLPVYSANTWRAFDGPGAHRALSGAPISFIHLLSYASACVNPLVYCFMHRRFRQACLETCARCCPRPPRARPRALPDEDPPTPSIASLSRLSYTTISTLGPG
Summary of the method: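 Agonist-mode Fluo-8 calcium flux read on CHO-CCK cells after dye loading 30 min at 37 °C plus 30 min at room temperature.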

[2] = biological target: T1, CCK-B receptors (CHO-CCK); assay: Calcium flux (Fluo-8) antagonist test on CHO-CCK model cells in presence of CCK8; type: cell-based; settings: in presence of 10 nM CCK8
memory-deficient mice = assay: New object recognition experiment, memory-deficient mice; type: in vivo; settings: intraperitoneal injection
Excerpt: The new object recognition experiment is a highly validated method of cognitive memory, designed by Ennaceur & Delacour (1988) based on the exploration characteristics of rodents to new environments, and this model evaluates the memory function of the tested animal based on the length of time that the animal spends in exploring familiar objects it has seen in the environment and new objects it has not seen. […] The experiment is usually divided into three stages: 1. Adaptation period: let the animal be familiar with the experimental environment, and no objects are placed in the experimental box; 2. Familiarization period: place two identical objects in the experimental box and let the mice explore freely for 10 minutes; 3. Test period: put a new object in the experimental box to replace one of the old objects, and the positions of the objects remain unchanged. The exploration of mice was recorded with video, and the time spent in exploring the old and new objects by mice was analyzed, and the proportion of time spent in exploring the new object by mice in the test period accounting for the total time for exploring the objects was calculated, that is, the recognition index of new objects.
Adult memory-deficient mice were housed under standard conditions with free access to food and water. Our new object recognition experiment for testing memory-deficient mice mainly included the adaptation period, the familiarization period, and the test period. The experimental method was the same as Example 12.
We randomized memory-deficient mice into four groups, with one group given intraperitoneal injection of the solvent of drug as the control group, administration group 1 given intraperitoneal injection of the compound HT-267 solution, administration group 2 given intraperitoneal injection of the compound HT-177 solution, and administration group 3 given intraperitoneal injection of the compound HT-178 solution. After the adaptation and familiarization period training, we tested the recognition memory of several groups of mice in the test period experiment.

[3] = tested on: neocortex of Alzheimer's mice; assay: Long-term potentiation, in vitro field potential recording of brain slices (MED64), Alzheimer's mice; type: cell-based; settings: compound injected for five minutes
Excerpt: An in vitro electrophysiological electrical signal recording method was used to investigate whether compound HT-267 can induce long-term potentiation in the neocortex of Alzheimer's mice. The MED64 low-noise multi-electrode recording system was used to record the electrical signals of brain slices cultured in vitro. […] It was shown that compound HT-267 could induce long-term potentiation in the neocortex of Alzheimer's mice.

[4] = tested on: neocortex of memory-deficient mice; assay: Long-term potentiation, in vitro field potential recording of brain slices (MED64), memory-deficient mice; type: cell-based; settings: compound injected for five minutes
Excerpt: An in vitro electrophysiological electrical signal recording method was used to investigate whether compound HT-267, compound HT-177, and compound HT-178 can induce long-term potentiation in the neocortex of memory-deficient mice. The MED64 low-noise multi-electrode recording system was used to record the electrical signals of brain slices cultured in vitro.

Which results are given for `CSCC[C@H](NC(=O)[C@@H](Cc1c[nH]c2ccccc12)NC(C)=O)C(=O)N[C@@H](CC(=O)O)C(=O)N[C@@H](Cc1cccc(Br)c1)C(N)=O` [HT-267, Ac-D-Trp-Met-Asp-Phe(3-Br)-NH2]?
EC50 ([1]; Fluo-8 calcium flux, 100% control = 20 nM CCK8): 0.113 nM; agonistic/antagonistic activity on CCK-B receptors (in words) ([1]; calcium signal): more active; EC50 [2]: 23.8 nM; recognition index of new objects vs control (memory-deficient mice): significantly higher than that of the control group; basal field potential after administration (long-term potentiation) [3]: enhanced, and the enhancement lasted for more than one hour; basal field potential after administration (long-term potentiation) [4]: enhanced, and the enhancement lasted for more than one hour

Source: US20240415918A1, “Polypeptide and its use as a CCK receptor agonist/antagonist” (Centre for Regenerative Medicine & Health, Hong Kong …, priority 2021, published 2024)
